B1: P76 (peptide, listed as Homo sapiens)
chain: VFFKRAAEGFFRMNKLKESSDTNPKPYCMAAPMGLTENNRNRKKSYRETNLKAVSWPLNHT
B2: P77 (peptide, listed as Homo sapiens)
chain: B1 chain
B3: P19 (peptide, listed as Homo sapiens)
chain: WTPIPVLTRWPLPHPPPWRRATSCRMARSSPSATSGSSVRRRCSSLPSWVWNLAASTRPRSTPS

Legend:
[1] = test system: CD8+ T cells in PBMCs from patients with metastatic castrate-resistant prostate cancer; assay: Patient PBMC restimulation assay (TNFα+IFNγ+ CD8+ T cells); format: cell-based, human; settings: 9mer peptide; for Maximum frequency of TNFα+IFNγ+CD8+ T cells (Percent): greatest frequency among all tested PBMC donors; for Maximum fold change over negative control: TNFα+IFNγ+CD8+ T cells, highest across PBMC donors
Description: PBMCs from human patients with metastatic castrate-resistant prostate cancer were thawed using media (RPMI 1640 supplemented with Glutamax, 10% HI FBS, and IX Sodium Pyruvate). Cells were counted and plated in a 96 well round bottom microplate at a concentration of 250,000 viable cells per well. Lyophilized peptides were solubilized in 100% DMSO and diluted in media to 10 μg/mL. Neoantigen peptides were added in equal volume to PBMCs for a final concentration of 5 μg/mL. CEF Peptide Pool “Plus” (Cellular Technologies, Ltd.) was utilized as a positive control and DMSO at the same final concentration as the experimental peptides was utilized as a negative control. Human IL-15 (Peprotech) was added to all wells at final concentration of 10 ng/mL.
Plates were incubated at 37° C. (5% CO2) for a total of 13 days. Media was refreshed every 2 days with IL-15 (10 ng/mL final concentration) and IL-2 (R&D systems, 10 IU/mL final concentration). On day 12, PBMCs were re-stimulated with identical experimental peptides or controls, at same concentration as peptide stimulation on Day 1. After 1-hour incubation, protein Inhibitor Cocktail (eBioscience) was added to every well and plate was incubated overnight.
On day 13, cells were stained for intracellular flow cytometry analysis. The cells were washed with PBS and stained with Live/Dead Fixable Aqua Dead Cell stain (ThermoFisher). Following the live/dead stain, cells were blocked using Biotin-Free Fc Receptor Blocker (Accurate Chemical & Scientific Corp). Extracellular cellular flow panel (1 μL/antibody per well in 50 μL) consisted of CD3 PerCP-Cy5.5 (Biolegend), CD4 BV421 (Biolegend), and CD8 APC-Cy7 (Biolegend). After extracellular staining, cells were fixed using Foxp3/Transcription Factor Staining Buffer Set (eBioscience) and stained for intracellular proteins (1:50 dilution) using TNFα FITC (R&D Systems) and IFNγ BV785 (Biolegend). Cells were washed and resuspended in stain buffer and analyzed using a BD Celesta flow cytometer.
Flow cytometry cell staining analysis was completed using Flow Jo v10. Cells were gated on live, singlet, CD3+ cells. The CD8+ T cells were analyzed for TNFα/IFNγ expression and the frequency of double positive TNFα/IFNγ CD8+ T cells was recorded. Responses were assessed to be positive when the frequency of double positive TNFα/IFNγ CD8+ T cells due to stimulation with an experimental peptide was increased greater than or equal to 2-fold over the DMSO only negative control for that patient. Peptides were analyzed in 1 to 7 patient samples.
The 9 mer fragments shown in Table 13 were assessed for their ability to activate T cells using the Patient PBMC restimulation assay described in Example 1 using TNFα and IFNγ production by CD8^+ T cells as a readout. Self-antigens shown in Table 15 were also used in the assays. […] PBMCs from ten patients were evaluated.

HLA-A*02:01 = HLA-A*02:01 (Homo sapiens, UniProt P04439, D140Y/D185E/D98H/E176V/E277Q/G131W/G231S/I119V/I121R/I166T/I218V/L300P/L318F/N151K/N90K/P208A/P217A/Q86G/Q94H/R138H/R169H/T345S); assay: In vitro binding to class I MHC (UV peptide exchange, HLA class I ELISA); settings: 100% = same binding as positive control peptide
Description: (§1) The 9 mer peptides identified by bioinformatics analysis were analyzed for their binding propensities to 6 common HLA class I alleles (HLA-A*01:01, A*02:01, A*03:01, A*24:02, B*07:02, B*08:01). The principle of the method is briefly described below and consists of two parts, one involving exchange of peptide with a positive control induced by Ultraviolet (UV) radiation, and the second is an enzyme immunoassay to detect stable HLA-peptide and empty HLA complexes. HLA-bound peptides are critical for the stability of the HLA complex. A conditional HLA class I complex was stabilized by an UV-labile peptide utilizing a different peptide (Pos) for each HLA (Pos: HLA-A*01:01: […](SEQ ID NO: 409), HLA-A*02:01: […] (SEQ ID NO: 410), HLA-A*03:01: […] (SEQ ID NO: 411), HLA-A*24:02: […] (SEQ ID NO: 412), HLA-B*07:02: […] (SEQ ID NO: 413), HLA-B*08:01: […] (SEQ ID NO: 414), which could be cleaved by UV irradiation when bound to the HLA molecule. Upon cleavage, the resulting peptide fragments dissociated from the HLA class I complex since their length was insufficient to bind stably to HLA. Under the conditions in which peptide cleavage was performed (neutral pH, on melting ice), the peptide-free HLA complex remained stable.
(§2) The exchange efficiency between the peptide of interest and Pos was analyzed using an HLA class I ELISA. The combined technologies allowed the identification of ligands for an HLA molecule of interest which are potentially immunogenic.
(§3) Exchange control peptide Pos was a high affinity binder to the relevant HLA class I allele while exchange control peptide Neg was a non-binder. The UV control represented UV-irradiation of conditional HLA class I complex in the absence of a rescue peptide.
(§4) The HLA class I ELISA is an enzyme immunoassay based on the detection of beta2-microglobulin (B2M) of (peptide-stabilized) HLA class I complexes. To this end streptavidin was bound onto polystyrene microtiter wells. After washing and blocking, HLA complex present in exchange reaction mixtures or ELISA controls was captured by the streptavidin on the microtiter plate via its biotinylated heavy chain. Non-bound material was removed by washing. Subsequently, horseradish peroxidase (HRP)-conjugated antibody to human B2M was added. The HRP-conjugated antibody binds only to an intact HLA complex present in the microtiter well because unsuccessful peptide exchange results in disintegration of the original UV-sensitive HLA complex upon UV illumination. In the latter case B2M was removed during the washing step. After removal of non-bound HRP conjugate by washing, a substrate solution was added to the wells. A colored product formed in proportion to the amount of intact HLA complex present in the samples. After the reaction was terminated by the addition of a stop solution, absorbance was measured in a microtiter plate reader. The absorbance was normalized to the absorbance of an exchange control peptide (represents 100%). Suboptimal HLA binding of peptides with a moderate to low affinity for HLA class I molecules can also be detected by this ELISA technique (Rodenko, B et al. (2006) Nature Protocols 1: 1120-32).
(§5) Peptides that had 10% or greater exchange efficiency in one of the 6 HLA alleles were considered for further immunogenicity testing and analysis.
(§6) Binding of select neoepitopes to HLA-A*01:01, HLA-A*02:01, HLA-A*03:01, HLA-A*24:02, HLA-B*07:02 and HLA-B*08:01 was evaluated using the assay described in Example 1. […] As a criterion for further evaluation, peptides with an exchange rate of at least 10% with the corresponding Pos peptide for at least one of the 6 HLA alleles that we considered for further evaluation. The exchange rates with the allele specific Pos peptides, of the 24 neoantigens so identified are summarized below in Table 17. Higher percentages correspond to stronger binding to the HLA allele.

HLA-A*01:01 = HLA-A*01:01 (Homo sapiens, UniProt P04439, A114D/A174V/A182V/D101N/D185E/E176A/E190D/L180R/Q94H/R68K/S129P/T187R/V100A/V91M/W191G); assay: as above; settings: 100% = same binding as positive control peptide
Description: as §1, §2, §3, §4, §5, §6

HLA-B*08:01 = HLA-B*08:01 (Homo sapiens, UniProt P01889, A93T/A95T/D138N/E176V/E187T/K202T/Q94N/R180D/S35A/V36M/Y33D/Y91F); assay: as above; settings: 100% = same binding as positive control peptide
Description: as §1, §2, §3, §4, §5, §6

HLA-A*24:02 = HLA-A*24:02 (Homo sapiens, UniProt P04439, D101N/D140Y/D185E/E176V/E190D/F33S/G103R/G107R/I119L/I121M/I306V/K335N/L105A/L180Q/L300P/N151K/N90K/Q86E/Q94H/R106L/R138H/R89G/T104I/T345S/V100E/W191G/Y123F); assay: as above; settings: 100% = same binding as positive control peptide
Description: as §1, §2, §3, §4, §5, §6

HLA-A*03:01 = HLA-A*03:01 (Homo sapiens, UniProt P04439); assay: as above; settings: 100% = same binding as positive control peptide
Description: as §1, §2, §3, §4, §5, §6

HLA-B*07:02 = HLA-B*07:02 (Homo sapiens, UniProt P01889); assay: as above; settings: 100% = same binding as positive control peptide
Description: as §1, §2, §3, §4, §5, §6

Molecule | Maximum frequency of TNFα+IFNγ+CD8+ T cells (Percent) [1] | also measured
GVPGDSTRRAVRRMNTF (listed as Homo sapiens) [Neoantigen P16] | 4.620% | –
NSKMALNSLNSIDDAQLTRIAPPRSHCCFWEVNAP (listed as Homo sapiens) [Neoantigen P35] | 0.064% | –
P17 (GVPGDSTRRAVRRMNTF; listed as Homo sapiens) [Neoantigen P17] | 0.130% | –
P27 (LHPQRETFTPRWSGANYWKLAFPVGAEGTFPAAATQRGVVRPA; listed as Homo sapiens) [Neoantigen P27] | 0.430% | –
P37 (MAGGVLRRLLCREPDRDGDKGASREETVVPLHIGDPVVLPGIGQCYSALF; listed as Homo sapiens) [Neoantigen P37] | 1.160% | –
P46 (DDRNTFDIVWWCPMSRLRLALTVPPSTTTTCVTVPAWAA; listed as Homo sapiens) [Neoantigen P46] | 0.140% | –
P48 (VQPIARELYQFTFDLLI; listed as Homo sapiens) [Neoantigen P48] | 0.220% | –
P50 (QMAVIQYSCMGLMVFAM; listed as Homo sapiens) [Neoantigen P50] | 0.190% | –
P56 (PKSEVRAKCKFSILNAK; listed as Homo sapiens) [Neoantigen P56] | 1.620% | –
P58 (MMAEIISVHVPKILSGK; listed as Homo sapiens) [Neoantigen P58] | 5.370% | –
P59 (LHPDSGNMVENGCYLRR; listed as Homo sapiens) [Neoantigen P59] | 3.010% | –
P60 (CYLRRQKRLKCEKQPGA; listed as Homo sapiens) [Neoantigen P60] | 0.340% | –
P61 (MFENGCYLGRQKRFKCE; listed as Homo sapiens) [Neoantigen P61] | 0.084% | –
P73 (DSSGNLLERNSFEVRV; listed as Homo sapiens) [Neoantigen P73] | 0.110% | –
P97 (GYLRMQGLMAQRLLLR; listed as Homo sapiens) [Neoantigen P97] | 0.160% | –
P98: peptide used for stimulation of PBMC samples (FIG. 5D); sequence in a table not shown (DDRNTFDIVWWCPMSRLRLALTVPPSTTTTCVTVPAWAA; listed as Homo sapiens) [Neoantigen P98] | 1.000% | Maximum fold change over negative control [1]: 14.93; Exchange rate with allele specific Pos peptide, HLA-A*02:01 (HLA-A*02:01): 7.9%; Exchange rate with allele specific Pos peptide, HLA-A*01:01 (HLA-A*01:01): 2.5%; Exchange rate with allele specific Pos peptide, HLA-B*08:01 (HLA-B*08:01): 2.4%; Exchange rate with allele specific Pos peptide, HLA-A*24:02 (HLA-A*24:02): −0.1%; Exchange rate with allele specific Pos peptide, HLA-A*03:01 (HLA-A*03:01): 51.1%; Exchange rate with allele specific Pos peptide, HLA-B*07:02 (HLA-B*07:02): 6.7%
SLYHREKQLIAMDSAI (listed as Homo sapiens) [Neoantigen P22] | 0.120% | Maximum fold change over negative control [1]: 5.00; Exchange rate with allele specific Pos peptide, HLA-B*07:02 (HLA-B*07:02): 8.3%
YEAGMTLGEKFRVGNCKHLKMTRP (listed as Homo sapiens) [Neoantigen P82] | 0.970% | –
YEAGMTLGGKILFFLFLLLPLSPFSLIF (listed as Homo sapiens) [Neoantigen P87] | 0.120% | –
B1 | 0.170% | Maximum fold change over negative control [1]: 2.30
B2 | 0.160% | Maximum fold change over negative control [1]: 3.24
B3 | 0.480% | –

Reference: US12692513B2, “Prostate neoantigens and their uses” (Janssen Biotech, Inc., priority 2020, dated 2026)
